Results reported in ChEMBL document CHEMBL3232977, “Medicinal chemistry optimization of antiplasmodial imidazopyridazine hits from high throughput screening of a SoftFocus kinase library: part 1” (J Med Chem, 2014).

Tests used:
physchem = conditions: 0.01 M HCl, pH 2
Description: Solubility of the compound in 0.01M HCl at pH 2

Plasmodium falciparum [1] = assay: microbe, parasite or virus in culture; conditions: K1
Description: Antimalarial activity against multidrug-resistant Plasmodium falciparum K1

Plasmodium falciparum [2] = assay: microbe, parasite or virus in culture; conditions: NF54
Description: Antimalarial activity against drug-sensitive Plasmodium falciparum NF54

[3] = Hepatic extraction ratio in human liver microsomes at 1 uM up to 60 mins by LC-MS analysis; format: ADME; conditions: read-out: ERH

Compound | solubility (physchem) [µg/mL] | IC50 (Plasmodium falciparum [1]) [nM] | IC50 (Plasmodium falciparum [2]) [nM] | hepatic extraction ratio at 1 h, 1 µM [3]
N[S+]([O-])c1ccc(-c2ccc3ncc(-c4ccc([S+](N)[O-])cc4)n3n2)cc1 (configuration not stated) | > 100 | > 2330 | > 2330 | –
c1cncc(-c2ccc3ncc(-c4cccnc4)n3n2)c1 | > 100 | 1070 | 1270 | –
CS(=O)(=O)c1ccc(-c2ccc3ncc(-c4cccnc4)n3n2)cc1 | > 100 | > 2850 | > 2850 | –
CS(=O)(=O)Nc1cccc(-c2ccc3ncc(-c4ccncc4)n3n2)c1 | > 100 | 15 | 16 | 0.82
CN(C)c1cccc(-c2ccc3ncc(-c4ccc(S(C)(=O)=O)cc4)n3n2)c1 | > 100 | 107 | 117 | –
CS(=O)(=O)Nc1cccc(-c2ccc3ncc(-c4cncnc4)n3n2)c1 | > 100 | 76 | 93 | 0.75
CS(=O)(=O)c1ccc(-c2cnc3ccc(-c4cccc(C(=O)N5CCCCC5)c4)nn23)cc1 | > 100 | 7.2 | 6.5 | –
C1=C(c2ccc3ncc(-c4ccncc4)n3n2)Cc2nonc2C1 | > 100 | > 3180 | > 3180 | –
CS(=O)(=O)c1ccc(-c2cnc3ccc(-c4ccc(C(F)(F)F)c(F)c4)nn23)cc1 | > 100 | 315 | 393 | –
Clc1cccc(-c2ccc3ncc(-c4ccncc4)n3n2)c1 | > 100 | 183 | 202 | –
c1cc(-c2ccc3ncc(-c4ccncc4)n3n2)cc(N2CCOCC2)c1 | > 100 | 246 | 283 | –
CS(=O)(=O)c1cccc(-c2ccc3ncc(-c4ccncc4)n3n2)c1 | > 100 | 28 | 46 | –
CC(C)(C)OC(=O)NCc1ccc(-c2ccc3ncc(-c4ccncc4)n3n2)cc1 | > 100 | 1610 | 1630 | –
c1cc(-c2cnc3ccc(-c4ccc(N5CCOCC5)cc4)nn23)ccn1 | > 100 | > 2800 | > 2800 | –
CS(=O)(=O)c1ccc(-c2cnc3ccc(-c4cccc(C#N)c4)nn23)cc1 | > 100 | 96 | 107 | –
Fc1ccc(-c2ccc3ncc(-c4ccncc4)n3n2)cc1F | > 100 | 415 | 496 | –
CS(=O)(=O)c1ccc(-c2cnc3ccc(-c4cc(C(=O)NC5CCCCC5)ccc4F)nn23)cc1 | > 100 | > 2030 | > 2030 | –
COc1ccc(-c2ccc3ncc(-c4ccncc4)n3n2)cn1 | > 100 | 412 | 603 | –
CS(=O)(=O)Nc1cccc(-c2ccc3ncc(-c4ccc([S+](N)[O-])cc4)n3n2)c1 (configuration not stated) | > 100 | 20 | 18 | 0.42
CC(C)(C)OC(=O)NCc1cccc(-c2ccc3ncc(-c4ccncc4)n3n2)c1 | > 100 | 97 | 95 | –
O=S(=O)(c1ccc(-c2ccc3ncc(-c4ccncc4)n3n2)cc1)N1CCOCC1 | > 100 | 1490 | 2240 | –
CS(=O)(=O)c1ccc(-c2cnc3ccc(-c4cccc(S(=O)(=O)NC5CC5)c4)nn23)cc1 | > 100 | 0.58 | 0.66 | –
CS(=O)(=O)c1ccc(-c2ccc3ncc(-c4ccncc4)n3n2)cc1 | > 100 | > 2850 | > 2850 | –
NCc1cccc(-c2ccc3ncc(-c4ccncc4)n3n2)c1 | > 100 | 588 | 289 | –

Compound | solubility (physchem) [µg/mL] | IC50 (Plasmodium falciparum [1]) [nM] | IC50 (Plasmodium falciparum [2]) [nM] | hepatic extraction ratio at 1 h, 1 µM [3]
CS(=O)(=O)c1ccc(-c2cnc3ccc(-c4ccc(F)c(Cl)c4)nn23)cc1 | > 100 | 152 | 179 | –
CC(C)(C)NC(=O)c1ccc(F)c(-c2ccc3ncc(-c4ccc(S(C)(=O)=O)cc4)n3n2)c1 | > 100 | 155 | 159 | –
CS(=O)(=O)c1ccc(-c2ccc3ncc(-c4ccc(S(C)(=O)=O)cc4)n3n2)cc1 | > 100 | 753 | 706 | –
CS(=O)(=O)c1ccc(-c2cnc3ccc(-c4cccc(S(=O)(=O)NCc5ccccc5)c4)nn23)cc1 | > 100 | 3.3 | 3.5 | –
CS(=O)(=O)c1ccc(-c2cnc3ccc(-c4ccc(C(F)(F)F)cc4)nn23)cc1 | > 100 | 134 | 189 | –
CC(C)(C)c1ccc(-c2ccc3ncc(-c4ccncc4)n3n2)cc1 | > 100 | 1420 | 1880 | –
CN(C)S(=O)(=O)c1ccc(-c2ccc3ncc(-c4ccc(S(=O)(=O)N(C)C)cc4)n3n2)cc1 | > 100 | > 2060 | > 2060 | –
CS(=O)(=O)c1ccc(-c2cnc3ccc(-c4ccc(C(F)(F)F)nc4)nn23)cc1 | > 100 | 633 | 763 | –
Fc1cccc(-c2ccc3ncc(-c4ccncc4)n3n2)c1 | > 100 | 203 | 272 | –
FC(F)(F)c1ccc(-c2ccc3ncc(-c4ccncc4)n3n2)cn1 | > 100 | 873 | 964 | –
COc1ccc(-c2cnc3ccc(-c4cccnc4)nn23)cc1OC | – | 23.5 | 25.9 | 0.92
CS(=O)(=O)c1ccc(-c2cnc3ccc(-c4cccc(C(N)=O)c4)nn23)cc1 | > 100 | 99 | 102 | –
CS(=O)(=O)c1ccc(-c2cnc3ccc(-c4ccc(C(=O)NC5CCCC5)cc4)nn23)cc1 | > 100 | 146 | 154 | –
FC(F)(F)Oc1cccc(-c2ccc3ncc(-c4ccncc4)n3n2)c1 | > 100 | 118 | 146 | –
CS(=O)(=O)c1ccc(-c2cnc3ccc(-c4cccc(C(F)(F)F)c4)nn23)cc1 | > 100 | 55 | 79 | –
c1cc(-c2ccc3ncc(-c4ccncc4)n3n2)c2ccncc2c1 | > 100 | 192 | 223 | –
CS(=O)(=O)Nc1cccc(-c2ccc3ncc(-c4ccc(S(C)(=O)=O)cc4)n3n2)c1 | > 100 | 19 | 19 | –
c1cnc2c(-c3ccc4ncc(-c5ccncc5)n4n3)cccc2c1 | > 100 | 1670 | 2150 | –
CC(C)(C)c1cccc(-c2ccc3ncc(-c4ccncc4)n3n2)c1 | > 100 | 122 | 137 | –
FC(F)(F)Oc1ccc(-c2ccc3ncc(-c4ccncc4)n3n2)cc1 | > 100 | 980 | 1060 | –
Fc1ccc(-c2ccc3ncc(-c4ccncc4)n3n2)cc1 | > 100 | 138 | 186 | –
CS(=O)(=O)c1ccc(-c2cnc3ccc(-c4cccc(C(=O)NS(=O)(=O)C5CC5)c4)nn23)cc1 | > 100 | 11 | 14 | –
CN1CCN(S(=O)(=O)c2ccc(-c3ccc4ncc(-c5ccncc5)n4n3)cc2)CC1 | > 100 | 1250 | 739 | –
NCc1ccc(-c2ccc3ncc(-c4ccncc4)n3n2)cc1 | > 100 | 491 | 335 | –
